Molecular target: T1, LPL from rat adipocytes (Rattus norvegicus, UniProt Q06000)
T1 construct: 75 μg of partially purified LPL from rat adipocytes; from tissue; host or cells: rat adipocytes
T1 sequence (Q06000 28-474): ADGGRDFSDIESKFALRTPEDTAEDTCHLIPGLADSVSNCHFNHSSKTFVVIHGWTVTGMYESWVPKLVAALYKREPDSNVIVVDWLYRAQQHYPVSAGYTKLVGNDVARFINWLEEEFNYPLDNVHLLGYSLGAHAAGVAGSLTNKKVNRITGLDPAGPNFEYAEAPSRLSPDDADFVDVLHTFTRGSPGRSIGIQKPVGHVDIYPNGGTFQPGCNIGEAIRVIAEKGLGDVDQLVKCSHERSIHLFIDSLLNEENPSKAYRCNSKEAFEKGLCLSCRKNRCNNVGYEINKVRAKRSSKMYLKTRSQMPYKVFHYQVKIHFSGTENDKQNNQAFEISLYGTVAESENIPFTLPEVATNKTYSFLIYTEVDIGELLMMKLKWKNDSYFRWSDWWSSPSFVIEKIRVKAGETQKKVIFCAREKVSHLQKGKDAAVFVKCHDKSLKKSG
Assay: Cleavage of NAG by LPL
Format: biochemical
Conditions: for Increase in the absorption at 481 nm: 60 min, NAG 0.05 mg/ml

**Q.** O=C(CCCCCCCCCCCNc1ccc([N+](=O)[O-])c2nonc12)OCC(O)CO (centres unmarked) [Compound (3)] was tested. Which “Activity relative to HSL” value (conditions optimized for HSL) did it give?
**A.** Its value is roughly 70%.

**Q.** What about the “Increase in the absorption at 481 nm” value (enzyme 10 arb. units) of the same compound?
**A.** Its value is 105 ± 14 arb. units.

**Q.** And the “Increase in the absorption at 481 nm” value (enzyme 20 arb. units)?
**A.** The value was 187 ± 17 arb. units.

**Q.** And the “Increase in the absorption at 481 nm” value (enzyme 50 arb. units)?
**A.** The value was 489 ± 31 arb. units.

**Q.** And the “Increase in the absorption at 481 nm” value (enzyme 75 arb. units)?
**A.** Its value is 773 ± 56 arb. units.

**Q.** And the “Increase in the absorption at 481 nm” value (enzyme 100 arb. units)?
**A.** Its value is 948 ± 72 arb. units.

**Q.** What about the “Increase in the absorption at 481 nm” value (enzyme 150 arb. units) of the same compound?
**A.** Its value is 1487 ± 132 arb. units.

**Q.** And the “Increase in the absorption at 481 nm” value (enzyme 200 arb. units)?
**A.** The value was 1952 ± 173 arb. units.

**Q.** What about the “Increase in the absorption at 481 nm” value (enzyme 250 arb. units) of the same compound?
**A.** The value was 2638 ± 213 arb. units.

**Q.** What about the “Increase in the absorption at 481 nm” value (enzyme 300 arb. units) of the same compound?
**A.** Its value is 2945 ± 250 arb. units.

**Q.** What about the “Increase in the absorption at 481 nm” value (enzyme 400 arb. units) of the same compound?
**A.** Its value is 3512 ± 288 arb. units.

From patent US6783949B1, “Processes for determining whether a test substance contains lipases or lipase inhibitors” (Aventis Pharma Deutschland GmbH, priority 1999, dated 2004)
